What was measured:
[1] = target: FGFR3-BAIAP2L1 Ba/F3 cells (Homo sapiens, UniProt P22607); experiment: Ba/F3 cell viability assay (CellTiter-Glo 2.0), FGFR3-BAIAP2L1 Ba/F3; assay type: cell-based; settings: for Ba/F3 FGFR1/FGFR3 Selectivity: FGFR3 > FGFR1 selectivity ratio in Ba/F3 FGFR fusion cell based assays; for IC50: read-out: Ba/F3 Cells FGFR3 (IC50 nM), FGFR3-BAIAP2L1 Ba/F3 cells, 48 hours, Cell Titer Glo 2.0
Source text: (§1) Experimental Purpose: Recombinant kinase fusions are transduced into parental Ba/F3, which becomes dependent upon this constitutive kinase activity for IL3-independent survival. Inhibition of kinase activity leads to cell death, which is monitored using CellTiter-Glo® 2.0 (Promega) which measures intracellular ATP concentration that in turn serves as a marker for viability. FGFR1-BCR Ba/F3 and FGFR3-BAIAP2L1 Ba/F3 were obtained from Advanced Cellular Dynamics (Seattle, WA)
(§2) Cell Viability Assay Procedure: Cell Titer-Glo® 2.0 Luminescent cell viability assay reagent was purchased from Promega (Madison, WI). FGFR1-BCR Ba/F3 and FGFR3-BAIAP2L1 Ba/F3 cells were cultured in RPMI1640 media supplemented with 10% fetal bovine serum. Cultures were maintained at 37° C. in a humidified atmosphere of 5% C02 and 95% air.
(§3) Cells were plated in 96-well clear bottom/white plates (Corning #3903) at 10,000 cells/well in 100 μl of media, incubated overnight. The next day, test compound DMSO stock solutions were made at 10 mM and 2 μM final concentration. Compounds were then added to cells in a 9-dose, 10-fold dilution series starting at 30 μM with an HP 300e Digital Dispenser (each dose was applied in triplicate). DMSO was backfilled to each well up to 301 nL total volume of test compound+DMSO, and a total of 301 nL DMSO was added to a control/no test compound well in triplicate. The cells in cell culture plates were incubated with the compounds at 37° C. and 5% C02 for 48 hours. Then 50 μl of Cell Titer Glo 2.0 reagent was added to each well of the cell culture plates. The contents were covered from light and mixed on an orbital shaker at room temperature for 10 min. Luminescence was recorded by a Synergy H1 Microplate Reader (Biotek, Winooski, VT). Cells were assessed as a percentage of DMSO only treated control cells. Curves were plotted and IC50 values were calculated using the GraphPad Prism 8 program based on a sigmoidal dose-response equation (4 parameter).

FGFR3 (V555M) = FGFR3 (V555M) (Homo sapiens (Human), UniProt P22607, V555M); experiment: Kinase assay, binding constants (Kd), kinase-tagged T7 phage, qPCR; settings: V555M mutant
Outline: (§4)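 Using T7 phage lysates from BL21-derived E. coli, compounds at 0.9% final DMSO competed for kinase binding to ligand-bearing magnetic beads. After elution, qPCR measured remaining kinase, and Kds were fitted by non-linear least squares with the Hill slope fixed at −1.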

FGFR2 = FGFR2 (Homo sapiens (Human), UniProt P21802); experiment: as above
Outline: as §4

FGFR1 = FGFR1 (Homo sapiens (Human), UniProt P11362); experiment: as above
Outline: as §4

FGFR3 = FGFR3 (Homo sapiens (Human), UniProt P22607); experiment: as above
Outline: as §4

FGFR4 = FGFR4 (Homo sapiens (Human), UniProt P22455); experiment: as above
Outline: as §4

FGFR1-BCR Ba/F3 cells = FGFR1-BCR Ba/F3 cells (Homo sapiens, UniProt P11362); experiment: Ba/F3 cell viability assay (CellTiter-Glo 2.0), FGFR1-BCR Ba/F3; assay type: cell-based; settings: read-out: Ba/F3 Cells FGFR1 (IC50 nM), 48 hours, Cell Titer Glo 2.0
Source text: as §1, §2, §3

Chain of FGFR3-BAIAP2L1 Ba/F3 cells (P22607 23-806 limits assumed, change not shown): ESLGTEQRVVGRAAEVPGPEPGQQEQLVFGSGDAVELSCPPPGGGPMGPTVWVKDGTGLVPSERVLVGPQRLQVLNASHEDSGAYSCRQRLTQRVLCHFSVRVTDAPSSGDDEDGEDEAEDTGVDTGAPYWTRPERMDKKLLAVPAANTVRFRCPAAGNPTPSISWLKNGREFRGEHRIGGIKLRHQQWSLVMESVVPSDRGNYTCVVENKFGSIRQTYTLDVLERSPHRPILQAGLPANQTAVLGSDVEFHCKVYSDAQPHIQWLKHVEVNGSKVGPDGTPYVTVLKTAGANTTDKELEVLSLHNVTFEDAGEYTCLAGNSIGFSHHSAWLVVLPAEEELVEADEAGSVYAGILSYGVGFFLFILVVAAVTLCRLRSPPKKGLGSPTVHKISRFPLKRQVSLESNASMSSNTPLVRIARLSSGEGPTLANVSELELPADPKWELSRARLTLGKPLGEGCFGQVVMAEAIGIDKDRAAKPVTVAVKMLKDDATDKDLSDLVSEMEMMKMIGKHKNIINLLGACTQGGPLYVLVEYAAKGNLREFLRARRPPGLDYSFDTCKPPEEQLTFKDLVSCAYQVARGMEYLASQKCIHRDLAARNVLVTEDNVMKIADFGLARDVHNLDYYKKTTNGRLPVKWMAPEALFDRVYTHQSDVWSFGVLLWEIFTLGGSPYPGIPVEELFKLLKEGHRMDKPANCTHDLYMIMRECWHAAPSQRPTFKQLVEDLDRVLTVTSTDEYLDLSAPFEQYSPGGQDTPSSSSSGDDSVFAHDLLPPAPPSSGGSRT
Chain of FGFR3 (P22607 23-806): as the sequence (P22607 23-806 limits assumed, change not shown) above
Chain of FGFR3 (V555M) (P22607 23-806 V555M): as the sequence (P22607 23-806 limits assumed, change not shown) above, with V533M counted along it
Chain of FGFR1 (P11362 22-822): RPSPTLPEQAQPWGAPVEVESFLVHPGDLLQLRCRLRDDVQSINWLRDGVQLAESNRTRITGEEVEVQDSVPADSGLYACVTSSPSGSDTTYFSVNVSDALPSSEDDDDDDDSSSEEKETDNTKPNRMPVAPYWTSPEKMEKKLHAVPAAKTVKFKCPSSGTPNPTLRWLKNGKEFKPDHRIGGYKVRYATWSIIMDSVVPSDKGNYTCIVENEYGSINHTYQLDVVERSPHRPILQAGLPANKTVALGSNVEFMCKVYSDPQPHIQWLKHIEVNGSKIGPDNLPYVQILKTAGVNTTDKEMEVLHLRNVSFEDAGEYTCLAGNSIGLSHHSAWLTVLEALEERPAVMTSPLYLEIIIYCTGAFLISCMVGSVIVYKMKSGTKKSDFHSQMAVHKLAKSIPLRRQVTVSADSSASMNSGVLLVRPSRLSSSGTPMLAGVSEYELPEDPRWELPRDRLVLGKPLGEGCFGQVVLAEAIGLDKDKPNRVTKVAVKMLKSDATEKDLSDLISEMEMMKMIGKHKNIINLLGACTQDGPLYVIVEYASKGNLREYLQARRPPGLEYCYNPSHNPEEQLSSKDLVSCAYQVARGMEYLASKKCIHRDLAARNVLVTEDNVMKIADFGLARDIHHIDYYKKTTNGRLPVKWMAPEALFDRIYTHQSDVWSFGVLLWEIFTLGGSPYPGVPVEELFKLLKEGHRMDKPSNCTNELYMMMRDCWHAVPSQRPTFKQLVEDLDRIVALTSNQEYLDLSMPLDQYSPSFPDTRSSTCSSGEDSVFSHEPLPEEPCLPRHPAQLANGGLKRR
Chain of FGFR1-BCR Ba/F3 cells (P11362 22-822 limits assumed, change not shown): as the sequence (P11362 22-822) above
Chain of FGFR4 (P22455 22-802): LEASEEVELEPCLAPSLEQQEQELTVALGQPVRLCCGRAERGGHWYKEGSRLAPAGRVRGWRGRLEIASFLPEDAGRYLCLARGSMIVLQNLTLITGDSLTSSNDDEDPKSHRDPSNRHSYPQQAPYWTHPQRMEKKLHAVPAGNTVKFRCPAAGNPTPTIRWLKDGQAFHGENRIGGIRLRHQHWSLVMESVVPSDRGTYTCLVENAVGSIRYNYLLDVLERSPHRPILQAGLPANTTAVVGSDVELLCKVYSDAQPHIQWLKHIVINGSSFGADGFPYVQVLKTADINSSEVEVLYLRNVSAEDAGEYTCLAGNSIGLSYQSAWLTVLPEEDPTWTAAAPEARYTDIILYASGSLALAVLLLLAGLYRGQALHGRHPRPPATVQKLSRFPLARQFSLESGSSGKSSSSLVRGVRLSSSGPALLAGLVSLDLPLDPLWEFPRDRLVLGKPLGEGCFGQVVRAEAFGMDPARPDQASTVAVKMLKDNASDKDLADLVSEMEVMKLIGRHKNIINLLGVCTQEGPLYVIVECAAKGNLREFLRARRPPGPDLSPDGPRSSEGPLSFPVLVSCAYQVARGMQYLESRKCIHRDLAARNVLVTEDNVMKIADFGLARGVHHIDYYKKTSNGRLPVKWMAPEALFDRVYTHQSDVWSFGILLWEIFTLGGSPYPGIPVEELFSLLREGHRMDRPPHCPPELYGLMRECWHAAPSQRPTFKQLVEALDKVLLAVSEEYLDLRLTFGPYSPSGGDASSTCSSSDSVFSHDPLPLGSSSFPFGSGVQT
Chain of FGFR2 (P21802 22-821): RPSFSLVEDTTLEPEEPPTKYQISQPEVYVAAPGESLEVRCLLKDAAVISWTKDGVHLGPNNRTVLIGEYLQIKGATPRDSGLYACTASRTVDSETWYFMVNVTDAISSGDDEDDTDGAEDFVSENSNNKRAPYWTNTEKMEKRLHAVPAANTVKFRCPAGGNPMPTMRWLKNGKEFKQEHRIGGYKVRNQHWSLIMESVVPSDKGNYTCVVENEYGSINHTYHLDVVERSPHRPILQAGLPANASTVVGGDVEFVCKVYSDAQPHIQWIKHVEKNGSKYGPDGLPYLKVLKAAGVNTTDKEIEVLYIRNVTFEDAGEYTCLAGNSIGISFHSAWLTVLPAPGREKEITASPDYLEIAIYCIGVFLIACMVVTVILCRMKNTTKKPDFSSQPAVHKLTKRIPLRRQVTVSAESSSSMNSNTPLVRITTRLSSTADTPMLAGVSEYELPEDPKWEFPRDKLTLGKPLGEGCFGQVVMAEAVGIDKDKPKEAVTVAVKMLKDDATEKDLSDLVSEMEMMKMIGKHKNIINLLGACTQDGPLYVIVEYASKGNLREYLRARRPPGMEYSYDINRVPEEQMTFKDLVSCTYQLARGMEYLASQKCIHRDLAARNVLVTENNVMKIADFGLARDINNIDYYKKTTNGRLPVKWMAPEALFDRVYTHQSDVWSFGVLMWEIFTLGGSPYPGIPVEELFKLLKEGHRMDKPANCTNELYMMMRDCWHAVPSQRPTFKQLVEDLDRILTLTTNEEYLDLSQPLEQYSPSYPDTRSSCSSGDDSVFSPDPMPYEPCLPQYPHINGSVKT

| SMILES | Ba/F3 FGFR1/FGFR3 Selectivity [1] | IC50 [1] [nM] | Kd (FGFR3 (V555M)) [nM] | Kd (FGFR2) [nM] | Kd (FGFR1) [nM] | Kd (FGFR3) [nM] | Kd (FGFR4) [nM] | IC50 (FGFR1-BCR Ba/F3 cells) [nM] |
| --- | --- | --- | --- | --- | --- | --- | --- | --- |
| C[C@@H](Oc1ccc2[nH]nc(-c3ccc(N4CC5(CNC5)OC4=O)nc3)c2c1)c1c(Cl)cncc1Cl [Example 73, 7-[5-[5-[(1R)-1-(3,5-dichloro-4-pyridyl)ethoxy]-1H-indazol-3-yl]-2-pyridyl]-5-oxa-2,7-diazaspiro[3.4]octan-6-one] | 11 | 20 to 100 | 1 to 20 | 20 to 100 | 1 to 20 | 1 to 20 | 1 to 20 | 100 to 300 |
| C[C@@H](Oc1ccc2[nH]nc(-c3ccc(N4CC5(CCNCC5)OC4=O)nc3)c2c1)c1c(Cl)cncc1Cl [Example 74, 3-[5-[5-[(1R)-1-(3,5-dichloro-4-pyridyl)ethoxy]-1H-indazol-3-yl]-2-pyridyl]-1-oxa-3,8-diazaspiro[4.5]decan-2-one] | 6 | 20 to 100 | 1 to 20 | 1 to 20 | 1 to 20 | 1 to 20 | 1 to 20 | 100 to 300 |
| C[C@@H](Oc1ccc2[nH]nc(-c3ccc(N4CC5(CCN(C)CC5)OC4=O)nc3)c2c1)c1c(Cl)cncc1Cl [Example 75, 3-[5-[5-[(1R)-1-(3,5-dichloro-4-pyridyl)ethoxy]-1H-indazol-3-yl]-2-pyridyl]-8-methyl-1-oxa-3,8-diazaspiro[4.5]decan-2-one] | 14 | 1 to 20 | 1 to 20 | 1 to 20 | 1 to 20 | 1 to 20 | 1 to 20 | 100 to 300 |
| C[C@@H](Oc1ccc2[nH]nc(-c3ccc(N4CCC5(CC4)CCS(=O)(=O)C5)nc3)c2c1)c1c(Cl)cncc1Cl [Example 78, 8-[5-[5-[(1R)-1-(3,5-dichloro-4-pyridyl)ethoxy]-1H-indazol-3-yl]-2-pyridyl]-2λ^6-thia-8-azaspiro[4.5]decane 2,2-dioxide] | 13 | 1 to 20 | 1 to 20 | 1 to 20 | 1 to 20 | 1 to 20 | 1 to 20 | 20 to 100 |
| C[C@@H](Oc1ccc2[nH]nc(-c3cnn(C4CCN(CCO)CC4)c3)c2c1)c1c(Cl)cncc1Cl [Example 79, 2-[4-[4-[5-[(1R)-1-(3,5-dichloro-4-pyridyl)ethoxy]-1H-indazol-3-yl]pyrazol-1-yl]-1-piperidyl]ethanol] | 14 | 1 to 20 | 1 to 20 | 1 to 20 | 1 to 20 | 1 to 20 | 1 to 20 | 20 to 100 |
| Cc1ncc(Cl)c([C@@H](C)Oc2ccc3[nH]nc(-c4cnn(C5CCN(C)CC5)c4)c3c2)c1Cl [Example 80, 5-[(1R)-1-(3,5-dichloro-2-methyl-4-pyridyl)ethoxy]-3-[1-(1-methyl-4-piperidyl)pyrazol-4-yl]-1H-indazole] | 17 | 1 to 20 | 1 to 20 | 1 to 20 | 1 to 20 | 1 to 20 | 100 to 300 | 100 to 300 |
| C[C@@H](Oc1ccc2[nH]nc(-c3cnn(C4CCN(C(=O)CCN(C)C)CC4)c3)c2c1)c1c(Cl)cncc1Cl [Example 82, 1-[4-[4-[5-[(1R)-1-(3,5-dichloro-4-pyridyl)ethoxy]-1H-indazol-3-yl]pyrazol-1-yl]-1-piperidyl]-3-(dimethylamino)propan-1-one] | 11 | 1 to 20 | 1 to 20 | 1 to 20 | 1 to 20 | 1 to 20 | 20 to 100 | 100 to 300 |
| C[C@@H](Oc1ccc2[nH]nc(-c3cnn(C4CCN(C5CCC5)CC4)c3)c2c1)c1c(Cl)cncc1Cl [Example 90, 3-[1-(1-cyclobutyl-4-piperidyl)pyrazol-4-yl]-5-[(1R)-1-(3,5-dichloro-4-pyridyl)ethoxy]-1H-indazole] | 10 | 1 to 20 | 1 to 20 | 1 to 20 | 1 to 20 | 1 to 20 | 20 to 100 | 20 to 100 |
| CCN1CC[C@@H](n2cc(-c3n[nH]c4ccc(O[C@H](C)c5c(Cl)cncc5Cl)cc34)cn2)C1 [Example 91, 5-[(1R)-1-(3,5-dichloro-4-pyridyl)ethoxy]-3-[1-[(3R)-1-ethylpyrrolidin-3-yl]pyrazol-4-yl]-1H-indazole] | 8 | 1 to 20 | 1 to 20 | 1 to 20 | 1 to 20 | 1 to 20 | 20 to 100 | 100 to 300 |
| Cc1ncc(Cl)c([C@@H](C)Oc2ccc3[nH]nc(-c4cnn(C5CCNCC5)c4)c3c2)c1Cl [Example 92, 5-[(1R)-1-(3,5-dichloro-2-methyl-4-pyridyl)ethoxy]-3-[1-(4-piperidyl)pyrazol-4-yl]-1H-indazole] | 18 | 20 to 100 | 1 to 20 | 1 to 20 | 1 to 20 | 1 to 20 | 20 to 100 | 100 to 300 |
| C[C@@H](Oc1ccc2[nH]nc(-c3ccc(N4CC5(CCN5S(C)(=O)=O)C4)nc3)c2c1)c1c(Cl)cncc1Cl [Example 100, 5-[(1R)-1-(3,5-dichloro-4-pyridyl)ethoxy]-3-[6-(1-methylsulfonyl-1,6-diazaspiro[3.3]heptan-6-yl)-3-pyridyl]-1H-indazole] | 22 | 1 to 20 | 1 to 20 | 1 to 20 | 1 to 20 | 1 to 20 | 1 to 20 | > 300 |
| Cc1ncc(Cl)c([C@@H](C)Oc2ccc3[nH]nc(-c4cnn(C5CCOCC5)c4)c3c2)c1Cl [Example 104, 5-[(1R)-1-(3,5-dichloro-2-methyl-4-pyridyl)ethoxy]-3-(1-tetrahydropyran-4-ylpyrazol-4-yl)-1H-indazole] | 10 | 20 to 100 | 1 to 20 | 1 to 20 | 20 to 100 | 1 to 20 | 20 to 100 | > 300 |
| CC(Oc1ccc2[nH]nc(-c3cnn(C4CCN(C5COC5)CC4)c3)c2c1)c1c(Cl)ccnc1Cl (centres unmarked) [Example 108, 5-[1-(2,4-dichloro-3-pyridyl)ethoxy]-3-[1-[1-(oxetan-3-yl)-4-piperidyl]pyrazol-4-yl]-1H-indazole] | 14 | 1 to 20 | 1 to 20 | 1 to 20 | 20 to 100 | 1 to 20 | 20 to 100 | 100 to 300 |
| C[C@@H](Oc1ccc2[nH]nc(-c3cnn(C4CCS(=O)(=O)CC4)c3)c2c1)c1c(Cl)cncc1Cl [Example 114, 4-[4-[5-[(1R)-1-(3,5-dichloro-4-pyridyl)ethoxy]-1H-indazol-3-yl]pyrazol-1-yl]thiane 1,1-dioxide] | 12 | 20 to 100 | 1 to 20 | 1 to 20 | 1 to 20 | 1 to 20 | 20 to 100 | 100 to 300 |
| Cc1ncc(Cl)c([C@@H](C)Oc2ccc3[nH]nc(-c4cnn(C5CCS(=O)(=O)CC5)c4)c3c2)c1Cl [Example 116, 4-[4-[5-[(1R)-1-(3,5-dichloro-2-methyl-4-pyridyl)ethoxy]-1H-indazol-3-yl]pyrazol-1-yl]thiane 1,1-dioxide] | 12 | 1 to 20 | 1 to 20 | 20 to 100 | 20 to 100 | 1 to 20 | 20 to 100 | 100 to 300 |
| CCS(=O)(=O)N1CC2(CN(c3ncc(-c4n[nH]c5ccc(O[C@H](C)c6c(Cl)cncc6Cl)cc45)cn3)C2)C1 [Example 128, 5-[(1R)-1-(3,5-dichloro-4-pyridyl)ethoxy]-3-[2-(2-ethylsulfonyl-2,6-diazaspiro[3.3]heptan-6-yl)pyrimidin-5-yl]-1H-indazole] | 8 | 20 to 100 | 1 to 20 | 20 to 100 | 20 to 100 | 1 to 20 | 1 to 20 | > 300 |

Source: patent US20240109865A1, “INDAZOLE COMPOUNDS AS KINASE INHIBITORS” (TYRA BIOSCIENCES, INC., priority 2020, published 2024)
